Laboratory results: patent US20220169645A1, “COMPOUNDS AS BRUTON TYROSINE KINASE INHIBITORS, PREPARATION METHODS AND MEDICAL APPLICATIONS THEREOF” (Eternity Bioscience Inc., priority 2020, published 2022)

Legend:
human BTK-WT = molecular target: T1, human BTK-WT (Homo sapiens, UniProt Q06187); assay: BTK-Y223 autophosphorylation in HEK293 cells stably expressing BTK-WT (HTRF); assay type: cell-based; details: 2 hours treatment
T1 construct: host or cells: HEK293 (ATCC CRL1573), lentiviral transduction, puromycin selected
T1 sequence (Q06187 whole entry): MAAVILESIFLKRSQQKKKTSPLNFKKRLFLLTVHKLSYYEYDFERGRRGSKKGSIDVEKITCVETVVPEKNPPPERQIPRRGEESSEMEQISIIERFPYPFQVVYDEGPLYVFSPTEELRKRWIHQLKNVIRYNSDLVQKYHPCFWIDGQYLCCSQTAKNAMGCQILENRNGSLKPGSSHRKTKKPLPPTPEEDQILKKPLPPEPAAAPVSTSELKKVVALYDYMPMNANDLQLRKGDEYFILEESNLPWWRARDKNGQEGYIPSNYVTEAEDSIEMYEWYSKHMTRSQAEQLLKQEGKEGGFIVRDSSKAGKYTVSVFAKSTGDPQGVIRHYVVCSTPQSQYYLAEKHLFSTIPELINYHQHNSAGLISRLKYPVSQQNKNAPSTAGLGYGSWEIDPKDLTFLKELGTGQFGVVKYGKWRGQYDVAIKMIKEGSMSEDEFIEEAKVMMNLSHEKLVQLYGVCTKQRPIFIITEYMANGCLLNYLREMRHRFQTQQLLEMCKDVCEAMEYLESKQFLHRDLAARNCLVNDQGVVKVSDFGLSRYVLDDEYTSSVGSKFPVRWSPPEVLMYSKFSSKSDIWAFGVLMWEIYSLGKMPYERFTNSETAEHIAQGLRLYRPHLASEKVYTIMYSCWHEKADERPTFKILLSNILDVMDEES
Procedure: (§1) HEK293 cells (purchased from ATCC, CRL1573) stably expressing wild type BTK or mutant C481S BTK were generated by lentiviral transduction of constructs containing human BTK-WT or BTK-C481S mutant (Genecopoeia, Lv201 vector). Cells expressing BTK proteins were selected with puromycin treatment (1 μM). The protein expression was confirmed by western blotting of BTK and BTK-Y223 autophosphorylation. The cells were cultured in MEM medium (Sigma M2279), 10% heat-Inactivated FBS (Gibco 10100), penicillin streptomycin (Thermal Fisher 15140122), and puromycin (InvivoGen QLL-41-03). The BTK-Y223 phosphorylation was quantified using BTK phospho-Y223 kit (Cisbio 63ADK017PEG). HEK293/BTK stable cells were seeded in a 96-well plate at a density of 10 thousand cells/well in a total volume of 100 μL of media. Cells were incubated overnight in a humidified, 5% CO2 cell culture incubator at 37° C. The next day, the cells were treated with diluted compounds in a humidified, 5% CO2 cell culture incubator at 37° C. for 2 hours. The medium was removed from each well, and 50 μL of 1× lysis buffer from the assay kit was added into each well. The cells were incubated for 30 min at room temperature with shaking. Then 16 μL of lysate was transferred to a PROXIPLATE 384-plate (PerkinElmer 6008230), followed by addition of 4 μL of HTRF pre-mixed antibodies. After incubation overnight at room temperature, fluorescence signals in the plates were read on PHERAstar FSX instrument, using HTRF settings ([…]).
(§2) The relative cellular pBTK inhibition was calculated by HTRF signal change: The average of positive control well reading, and average of negative control reading were used as controls to calculate inhibition percentage.
(§3) The data was input into GraphPad Prism, using function “log(inhibitor) vs. response—Variable slope (four parameters)” to get IC50 values.

[1] = tested on: human TMD-8 diffuse large B-cell lymphoma cells; assay: BTK-dependent cell proliferation in human TMD-8 cells (CellTiter-Glo); assay type: cell-based; details: TMD8, 72 h, TMD-8 DLBCL cells, 3 days, absolute IC50
Procedure: The human TMD-8 DLBCL cancer cells were cultured in RPMI media with high glucose and glutamine (Genesee 25-506), 20% heat-inactivated FBS (Gibco 10100), penicillin streptomycin (Thermal Fisher 15140122) and 1 mM sodium pyruvate (Thermal Fisher 11360070). TMD-8 cells were centrifuged at 300 g for 5 minutes and the cells were resuspended into fresh cell culture media. The cells were counted and made to a cell stock of 1.3 million/mL. Then 75 μL of cells were seeded into each well of a white 96-well cell culture plate (Corning 353286). A serial dilution of compounds was made and 25 μL was added to each well. The plates were incubated for 3 days in a humidified, 5% CO2 atmosphere at 37° C. Inhibition of cell growth by the compounds was determined by measuring the ATP level generated by the cells with the Cell Titer-Glo Luminescent Cell Viability Kit (Promega G7572). Assay procedures were conducted according to the protocols provided by Promega. In brief, the treated cell-culture plate and its contents were equilibrated at room temperature for approximately 30 minutes. 100 μL of CellTiter-Glo® Reagent was added into each cell-culture well, and contents were mixed for 2 minutes on an orbital shaker to induce cell lysis. The plate was incubated at room temperature for 10 minutes to stabilize luminescent signal. The resulting luminescence signal was immediately read using a TECAN plate reader. The relative cell grow inhibition was calculated by Cell Titer-Glo luminescent signal change.
The average readings of media-only wells and the readings of positive control wells (no compound treatment) were used to calculate response percentage.
The data was input into GraphPad Prism, and the curve fitting was made using function “log(inhibitor) vs. response—Variable slope (four parameters)”. The interpolation function was used to calculate absolute IC50 values.

BTK-C481S mutant = molecular target: T2, BTK-C481S mutant (Homo sapiens, UniProt Q06187, C481S); assay: BTK-Y223 autophosphorylation in HEK293 cells stably expressing BTK-C481S (HTRF); assay type: cell-based; details: 2 hours treatment
T2 construct: host or cells: HEK293 (ATCC CRL1573), lentiviral transduction, puromycin selected
T2 sequence (Q06187 whole entry C481S): as the sequence (Q06187 whole entry) above, with C481S counted along it
Procedure: as §1, §2, §3

BTK-C481S = molecular target: T3, BTK-C481S (Homo sapiens, UniProt Q06187, C481S); assay: BTK-C481S kinase activity assay (ADP-Glo); assay type: biochemical; details: BTK kinase inhibition, 30 min preincubation, 90 min reaction
T3 construct: purchased Abcam ABCAM 204166; host or cells: Baculovirus infected Sf9 cells
T3 sequence (Q06187 whole entry C481S): as the sequence (Q06187 whole entry) above, with C481S counted along it
Procedure: (§4) These assays are to determine the degree of inhibition of the BTK-WT and BTK-C481S mutant kinase activity by measuring the amount of ADP produced during the enzymatic reactions. […] Compounds, BTK enzymes, ATP and substrate were all prepared in ix kinase assay buffer by diluting 5× stock of kinase assay buffer III (Signal Chem K03-09), in H2O, and adding DTT (Thermo ScientificA39255) for a final concentration of 50 μM. […] Then the plate was kept shaking for 30 min at room temperature to allow the binding of the compounds to the proteins. After the preincubation, ATP and the substrate, a total of 5 μL was added into each well. The plate was then spun down at 1000 rpm for 2 minutes and kept shaking for 90 min at room temperature. ADP detection was performed following the guidance from the ADP-Glo Kinase Assay kits (Promega V9101). Briefly, 10 μL of ADP-Glo reagent was added into each well. The plate was then spun down at 1000 rpm for 2 minutes and kept shaking at room temperature for 60 min. Twenty μL of the kinase detection solution was added into each well. The plate was incubated at room temperature for 30 min in dark. The plates were read for luminescence signals in Tecan M1000 directly following the 30 min incubation. Relative inhibition of BTK kinase activities were analyzed by calculating the luminescence signal change:
(§5) Data was input into GraphPad Prism, and the IC50 values were calculated using function “log(inhibitor) vs. response—Variable slope (four parameters)”.

full-length human BTK-WT = molecular target: T4, full-length human BTK-WT (Homo sapiens, UniProt Q06187); assay: BTK-WT kinase activity assay (ADP-Glo); assay type: biochemical; details: BTK kinase inhibition, 30 min preincubation, 90 min reaction
T4 construct: The full-length human BTK-WT (ABCAM205800); purchased Abcam ABCAM205800; host or cells: Baculovirus infected Sf9 cells
T4 sequence (Q06187 whole entry): as the sequence (Q06187 whole entry) above
Procedure: as §4, §5

Structure (SMILES) | IC50 (human BTK-WT) | IC50 [1] | IC50 (BTK-C481S mutant) | IC50 (BTK-C481S) | IC50 (full-length human BTK-WT)
COc1ccc(F)cc1C(=O)NCc1ccc(-n2nc(C(C)C)c(N)c2C(N)=O)c(F)c1 [Example A11, 4-amino-1-(2-fluoro-4-((5-fluoro-2-methoxybenzamido)methyl)phenyl)-3-isopropyl-1H-pyrazole-5-carboxamide] |  |  |  | 27 nM | 35 nM
COc1ccc(F)cc1C(=O)NCc1ccc(-n2nc(C(C)C)c(N)c2C(N)=O)cc1 [Example A1, 4-amino-1-(4-((5-fluoro-2-methoxybenzamido)methyl)phenyl)-3-isopropyl-1H-pyrazole-5-carboxamide] | 55 nM | 47 nM | 115 nM | 3.6 nM | 5.6 nM
CCOc1cc(CNC(=O)c2cc(F)ccc2OC)ccc1-n1nc(C(C)C)c(N)c1C(N)=O [Example A5, 4-amino-1-(2-ethoxy-4-((5-fluoro-2-methoxybenzamido)methyl)phenyl)-3-isopropyl-1H-pyrazole-5-carboxamide] |  | 240 nM |  | 11 nM | 11 nM
COc1ccc(F)cc1C(=O)NCc1ccc(-n2nc(C3CCCOC3)c(N)c2C(N)=O)cc1 (stereo not drawn) [Example A13, 4-amino-1-(4-((5-fluoro-2-methoxybenzamido)methyl)phenyl)-3-(tetrahydro-2H-pyran-3-yl)-1H-pyrazole-5-carboxamide] | 57 nM | 95 nM | 120 nM | 2.7 nM | 4.4 nM
CC(C)c1nn(-c2ccc(CNC(=O)c3cccc4c3OCC4)cc2)c(C(N)=O)c1N [Example A10, 4-amino-1-(4-((2,3-dihydrobenzofuran-7-carboxamido)methyl)phenyl)-3-isopropyl-1H-pyrazole-5-carboxamide] |  |  |  | 60 nM | 62 nM
COc1ccc(F)cc1C(=O)NCc1ccc(-n2nc(C3CCOCC3)c(N)c2C(N)=O)cc1 [Example A12, 4-amino-1-(4-((5-fluoro-2-methoxybenzamido)methyl)phenyl)-3-(tetrahydro-2H-pyran-4-yl)-1H-pyrazole-5-carboxamide] | 130 nM | 160 nM | 180 nM | 5.8 nM | 26 nM
COc1ccccc1C(=O)NCc1ccc(-n2nc(C(C)C)c(N)c2C(N)=O)cc1 [Example A9, 4-amino-3-isopropyl-1-(4-((2-methoxybenzamido)methyl)phenyl)-1H-pyrazole-5-carboxamide] | 84 nM | 140 nM | 170 nM | 14 nM | 14 nM

Other lines, results leading:

IC50 (human BTK-WT) | IC50 [1] | IC50 (BTK-C481S mutant) | IC50 (BTK-C481S) | IC50 (full-length human BTK-WT) | Structure (SMILES)
81 nM | 95 nM | 210 nM | 3.1 nM | 7.9 nM | COc1ccc(F)cc1C(=O)NCc1ccc(-n2nc(-c3cccs3)c(N)c2C(N)=O)cc1 [Example A14, 4-amino-1-(4-((5-fluoro-2-methoxybenzamido)methyl)phenyl)-3-(thiophen-2-yl)-1H-pyrazole-5-carboxamide]
120 nM | 120 nM | 230 nM | 11 nM | 15 nM | COc1ccc(F)cc1C(=O)NCc1ccc(-n2nc(C3CCOC3)c(N)c2C(N)=O)cc1 (stereo not drawn) [Example A16, 4-amino-1-(4-((5-fluoro-2-methoxybenzamido)methyl)phenyl)-3-(tetrahydrofuran-3-yl)-1H-pyrazole-5-carboxamide]
27 nM | 29 nM | 84 nM | 4.2 nM | 3.7 nM | COc1ccc(F)cc1C(=O)NCc1ccc(-n2nc(C3CCCC3)c(N)c2C(N)=O)cc1 [Example A15, 4-amino-3-cyclopentyl-1-(4-((5-fluoro-2-methoxybenzamido)methyl)phenyl)-1H-pyrazole-5-carboxamide]
 |  |  | 93 nM | 87 nM | COc1ccc(F)cc1C(=O)NCc1ccc(-n2nc(N3CCOCC3)c(N)c2C(N)=O)cc1 [Example A17, 4-amino-1-(4-((5-fluoro-2-methoxybenzamido)methyl)phenyl)-3-morpholino-1H-pyrazole-5-carboxamide]
 |  |  | 68 nM | 63 nM | CCOc1cc(CNC(=O)c2cc(F)ccc2OC)cc(F)c1-n1nc(C(C)C)c(N)c1C(N)=O [Example A19, 4-amino-1-(2-ethoxy-6-fluoro-4-((5-fluoro-2-methoxybenzamido)methyl)phenyl)-3-isopropyl-1H-pyrazole-5-carboxamide]
74 nM | 110 nM | 120 nM | 8 nM | 8.1 nM | COc1ccc(F)cc1C(=O)NCc1ccc(-n2nc(C3CCC(F)(F)CC3)c(N)c2C(N)=O)cc1 [Example A22, 4-amino-3-(4,4-difluorocyclohexyl)-1-(4-((5-fluoro-2-methoxybenzamido)methyl)phenyl)-1H-pyrazole-5-carboxamide]
